Laboratory results reported in patent US11485993B2, “Therapeutic drug monitoring” (Fastinov S.A., priority 2017, dated 2022).

Assays:
S. aureus ATCC 29213 = test: Flow cytometric measurement of the antimicrobial activity of vancomycin in human serum; format: cell-based; conditions: S. aureus ATCC 29213, flow cytometry, FIGS. 5A and 5B
Method: Material and Methods. S. aureus ATCC 29213 was incubated for 1 hour with serial concentrations of vancomycin (4 μg/ml to 0.03 μg/ml) in donor drug free human serum and stained with adequate fluorochrome. The intensity of fluorescence and the changes in the scattergram of the bacterial population were recorded after flow cytometry analysis. Twenty samples of serum collected from patients receiving vancomycin were obtained from the biochemistry lab. The vancomycin drug concentrations were analyzed by Architect iVancomycin (Abbott) using the Architect i1000 SR analyzer (Abbott). Architect iVancomycin is an in vitro chemiluminescent microparticle immunoassay (CMIA) for the quantitative measurement of vancomycin in human serum or plasma. In parallel, serum samples were incubated with the S. aureus control strain, after 10 serial dilutions (1:2) and analyzed by flow cytometry (Accury, BD) according the protocol described in Example 1. A flow cytometric template of cell analysis was defined in order to include the majority of the bacterial population. A comparison of the concentrations obtained with the Architect iVancomycin method and with the new flow cytometric method was performed using Student's T test.

E. coli ATCC 25922 = test: Flow cytometric measurement of the antimicrobial activity of colistin in human plasma; format: cell-based
Method: Serial dilutions of colistin (Sigma), ranging between 0.008 and 2 μg/ml, were inoculated in human plasma (free of colistin) and incubated with E. coli ATCC 25922 during 60 minutes and afterwards stained with a fluorescent dye and analyzed in a flow cytometer (Accuri, BD) using a protocol previously optimized (FIG. 3): a flow cytometric template of cell analysis was defined in order to include the majority of the bacterial population and at least 20,000 cells are analyzed according size, complexity and intensity of fluorescence on the different fluorescent channels.

## CN[C@H](CC(C)C)C(=O)N[C@H]1C(=O)N[C@@H](CC(N)=O)C(=O)N[C@H]2C(=O)N[C@H]3C(=O)N[C@H](C(=O)N[C@H](C(=O)O)c4cc(O)cc(O)c4-c4cc3ccc4O)[C@H](O)c3ccc(c(Cl)c3)Oc3cc2cc(c3O[C@@H]2O[C@H](CO)[C@@H](O)[C@H](O)[C@H]2O[C@H]2C[C@](C)(N)[C@H](O)[C@H](C)O2)Oc2ccc(cc2Cl)[C@H]1O [vancomycin]
S. aureus ATCC 29213
  cellular lesion with increasing concentration (reduction of cell density plot, increase of intensity of fluorescence): a dose effect cellular lesion is evident

## colistin
E. coli ATCC 25922; E. coli ATCC 25922, flow cytometry scattergrams
  morphological changes of the bacterial cell population after serial increasing concentrations: Morphological changes were evident
E. coli ATCC 25922; E. coli ATCC 25922, flow cytometry, FIG. 4
  amount of cells at the acquisition gate after incubation with increasing concentrations: a dose-dependent effect was achieved
